This note sets out measurements from patent US8686184B2, “Neprilysin inhibitors” (Theravance, Inc., priority 2011, dated 2014).

The target of this test is T1, human neprilysin (EC 3.4.24.11; NEP) (Homo sapiens, UniProt P08473).
T1 construct: purchased R&D Systems, Minneapolis, Minn; 1182-ZN
T1 sequence (P08473 52-750 limits assumed): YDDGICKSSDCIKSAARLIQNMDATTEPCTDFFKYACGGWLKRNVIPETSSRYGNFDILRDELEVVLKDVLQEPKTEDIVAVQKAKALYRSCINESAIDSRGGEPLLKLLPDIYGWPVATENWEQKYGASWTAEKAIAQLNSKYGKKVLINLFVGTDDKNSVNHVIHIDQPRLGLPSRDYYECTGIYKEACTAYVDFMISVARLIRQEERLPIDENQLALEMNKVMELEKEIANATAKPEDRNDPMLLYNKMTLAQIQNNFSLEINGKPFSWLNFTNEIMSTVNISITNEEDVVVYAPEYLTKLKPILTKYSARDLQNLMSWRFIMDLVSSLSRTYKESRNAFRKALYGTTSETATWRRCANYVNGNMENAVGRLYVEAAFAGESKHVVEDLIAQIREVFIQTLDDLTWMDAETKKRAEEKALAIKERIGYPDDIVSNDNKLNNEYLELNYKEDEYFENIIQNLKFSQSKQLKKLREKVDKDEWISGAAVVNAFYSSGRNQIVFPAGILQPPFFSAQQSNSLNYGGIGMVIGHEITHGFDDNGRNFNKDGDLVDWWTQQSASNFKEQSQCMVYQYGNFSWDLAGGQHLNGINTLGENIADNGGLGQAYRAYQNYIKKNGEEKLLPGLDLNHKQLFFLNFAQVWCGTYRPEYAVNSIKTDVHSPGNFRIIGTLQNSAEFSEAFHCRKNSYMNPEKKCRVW
Nature of the test: In vitro enzyme inhibition assay at human NEP (fluorogenic peptide substrate). It is filed as biochemical. The settings on record: recombinant human NEP; 37° C.; substrate Mca-D-Arg-Arg-Leu-Dap-(Dnp)-OH 10 μM; values given as ranges; read-out: pKi values at human NEP (converted). The method, then:
In vitro Assays for the Quantitation of Inhibitor Potencies at Human and Rat NEP, and Human ACE
The inhibitory activities of compounds at human and rat neprilysin (EC 3.4.24.11; NEP) and human angiotensin converting enzyme (ACE) were determined using in vitro assays as described below.
Recombinant human NEP and recombinant human ACE were obtained commercially (R&D Systems, Minneapolis, Minn., catalog numbers 1182-ZN and 929-ZN, respectively). The fluorogenic peptide substrate Mca-D-Arg-Arg-Leu-Dap-(Dnp)-OH (Medeiros et al. (1997) Braz. J. Med. Biol. Res. 30:1157-62; Anaspec, San Jose, Calif.) and Abz-Phe-Arg-Lys(Dnp)-Pro-OH (Araujo et al. (2000) Biochemistry 39:8519-8525; Bachem, Torrance, Calif.) were used in the NEP and ACE assays respectively.
The assays were performed in 384-well white opaque plates at 37° C. using the fluorogenic peptide substrates at a concentration of 10 μM in Assay Buffer (NEP: 50 mM HEPES, pH 7.5, 100 mM NaCl, 0.01% polyethylene glycol sorbitan monolaurate (Tween-20), 10 μM ZnSO4; ACE: 50 mM HEPES, pH 7.5, 100 mM NaCl, 0.01% Tween-20, 1 μM ZnSO4).
Test compounds were assayed over the range of concentrations from 10 μM to 20 pM. Test compounds were added to the enzymes and incubated for 30 minute at 37° C. prior to initiating the reaction by the addition of substrate. Reactions were terminated after 20 minutes of incubation at 37° C. by the addition of glacial acetic acid to a final concentration of 3.6% (v/v).
Plates were read on a fluorometer with excitation and emission wavelengths set to 320 nm and 405 nm, respectively Inhibition constants were obtained by nonlinear regression of the data using the equation (GraphPad Software, Inc., San Diego, Calif.): v=v0/[1+(I/K′)] where v is the reaction rate, v0 is the uninhibited reaction rate, I is the inhibitor concentration and K′ is the apparent inhibition constant.
Compounds of the invention were tested in this assay and found to have pKi values at human NEP as follows.
In the case of `CCCCc1ccc(C(=O)N[C@H](Cc2ccccc2)[C@@H](O)C(=O)O)cc1` [Example 10-35, (2R,3R)-3-(4-Butyl-benzoylamino)-2-hydroxy-4-phenyl-butyric acid], the Ki was 12.6 to 100 nM.
The same measure for `CCCCCc1ccc(C(=O)N[C@H](Cc2ccccc2)[C@@H](O)C(=O)O)cc1` [Example 10-38, (2R,3R)-2-Hydroxy-3-(4-pentyl-benzoylamino)-4-phenyl-butyric acid]: 12.6 to 100 nM; for `CC(C)c1ccc(C(=O)N[C@H](Cc2ccccc2)[C@@H](O)C(=O)O)cc1-c1ccncc1` [Example 10-80, (2R,3R)-2-Hydroxy-3-(4-isopropyl-3-pyridin-4-yl-benzoylamino)-4-phenyl-butyric acid]: 12.6 to 100 nM; for `Cc1ccc(C(=O)N[C@@H](CC(=O)O)Cc2ccccc2C(F)(F)F)cc1-c1ccccc1C(=O)O` [Example 14, 5′-[(R)-2-Carboxy-1-(2-trifluoromethyl-benzyl)-ethylcarbamoyl]-2′-methyl-biphenyl-2-carboxylic Acid]: 1.26 to 10 nM.
As for `CCc1ccc(C(=O)N[C@H](Cc2ccccc2)[C@@H](O)C(=O)O)cc1-c1ccccc1C(=O)O` [Example 10-19, 5′-((1R,2R)-1-Benzyl-2-carboxy-2-hydroxy-ethylcarbamoyl)-2′-ethyl-biphenyl-2-carboxylic acid], the figure is 1.26 to 10 nM; as for `O=C(N[C@H](Cc1ccccc1Cl)[C@@H](O)C(=O)O)c1cc(F)c(F)c(-c2ccccc2C(=O)O)c1` [Example 3, 5′-[(1R,2R)-2-Carboxy-1-(2-chlorobenzyl)-2-hydroxy-ethylcarbamoyl]-2′,3′-difluoro-biphenyl-2-carb oxylic Acid], not above 1 nM; as for `O=C(N[C@H](Cc1ccccc1)[C@@H](O)C(=O)O)c1cc(O)cc(-c2ccccc2C(=O)O)c1` [Example 10-24, 3′-((1R,2R)-1-Benzyl-2-carboxy-2-hydroxy-ethylcarbamoyl)-5′-hydroxy-biphenyl-2-carboxylic acid], 12.6 to 100 nM.
On to `Cc1cc(C(=O)N[C@H](Cc2ccccc2)[C@@H](O)C(=O)O)cc(-c2ccccc2C(=O)O)c1` [Example 10-27, 3′-((1R,2R)-1-Benzyl-2-carboxy-2-hydroxy-ethylcarbamoyl)-5′-methyl-biphenyl-2-carboxylic acid], for which the Ki was 12.6 to 100 nM.
On to `CCCNc1ccc(C(=O)N[C@H](Cc2ccccc2)[C@@H](O)C(=O)O)cc1Cl` [Example 10-56, (2R,3R)-3-(3-Chloro-4-propylamino-benzoylamino)-2-hydroxy-4-phenyl-butyric acid], for which the Ki was 12.6 to 100 nM.
With `O=C(O)c1cccc(-c2ccc(C(=O)N[C@H](Cc3ccccc3)[C@@H](O)C(=O)O)cc2)c1` [Example 10-51, 4′-((1R,2R)-1-Benzyl-2-carboxy-2-hydroxy-ethylcarbamoyl)-biphenyl-3-carboxylic acid], the Ki was 12.6 to 100 nM.
In the case of `CCc1ccc(C(=O)N[C@H](Cc2ccccc2)[C@@H](O)C(=O)O)cc1NC(=O)c1ccccc1` [Example 10-68, (2R,3R)-3-(3-Benzoylamino-4-ethyl-benzoylamino)-2-hydroxy-4-phenyl-butyric acid], the Ki was 12.6 to 100 nM.
As for `CCCc1ccc(C(=O)N[C@H](Cc2ccccc2)[C@@H](O)C(=O)O)cc1` [Example 10-33, (2R,3R)-2-Hydroxy-4-phenyl-3-(4-propyl-benzoylamino)-butyric acid], the figure is 12.6 to 100 nM; as for `O=C(N[C@H](Cc1ccccc1)[C@@H](O)C(=O)O)c1ccc(-n2cccc2)cc1` [Example 10-43, (2R,3R)-2-Hydroxy-4-phenyl-3-(4-pyrrol-1-yl-benzoylamino)-butyric acid], 12.6 to 100 nM; as for `COc1ccc(C(=O)O)c(-c2cccc(C(=O)N[C@H](Cc3ccccc3)[C@@H](O)C(=O)O)c2)c1` [Example 10-13, 3′-((1R,2R)-1-Benzyl-2-carboxy-2-hydroxy-ethylcarbamoyl)-5-methoxy-biphenyl-2-carboxylic acid], 12.6 to 100 nM.
The same measure for `O=C(CCCc1cc(F)ccc1C(=O)O)N[C@H](Cc1ccccc1Cl)[C@@H](O)C(=O)O` [Example 2-1, 2-{3-[(1R,2R)-2-Carboxy-1-(2-chlorobenzyl)-2-hydroxy-ethylcarbamoyl]-propyl}-4-fluoro-benzoic acid]: not above 1 nM; for `Cc1ccc(C(=O)N[C@H](Cc2ccccc2)[C@@H](O)C(=O)O)cc1Br` [Example 10-54, (2R,3R)-3-(3-Bromo-4-methyl-benzoylamino)-2-hydroxy-4-phenyl-butyric acid]: 12.6 to 100 nM; for `Cc1cc(C(=O)O)c(NC(=O)Nc2ccc(C(=O)N[C@H](Cc3ccccc3)[C@@H](O)C(=O)O)cc2)s1` [Example 10-53]: 12.6 to 100 nM.
As for `CCc1ccc(C(=O)N[C@@H](CC(=O)O)Cc2ccccc2Cl)cc1-n1c(=O)[nH]c2sc(C)cc2c1=O` [Example 13-10, (R)-4-(2-Chlorophenyl)-3-[4-ethyl-3-(6-methyl-2,4-dioxo-1,4-dihydro-2H-thieno[2,3-d]pyrimidin-3-yl)-benzoylamino]-butyric acid], the figure is 12.6 to 100 nM; as for `Cc1cc(C(=O)N[C@H](Cc2ccccc2Cl)[C@@H](O)C(=O)O)ccc1-c1ccccc1C(=O)O` [Example 6-8, 4′-[(1R,2R)-2-Carboxy-1-(2-chlorobenzyl)-2-hydroxy-ethylcarbamoyl]-2′-methyl-biphenyl-2-carboxylic acid], 1.26 to 10 nM.
As to `O=C(N[C@H](Cc1ccccc1)[C@@H](O)C(=O)O)c1cccc(-c2ccc(Cl)cc2C(=O)O)c1` [Example 10-11, 3′-((1R,2R)-1-Benzyl-2-carboxy-2-hydroxy-ethylcarbamoyl)-4-chloro-biphenyl-2-carboxylic acid], the Ki is 12.6 to 100 nM.
Regarding `O=C(N[C@H](Cc1ccccc1)[C@@H](O)C(=O)O)c1cccc(-c2cc(Cl)ccc2C(=O)O)c1` [Example 10-12, 3′-((1R,2R)-1-Benzyl-2-carboxy-2-hydroxy-ethylcarbamoyl)-5-chloro-biphenyl-2-carboxylic acid], the Ki is 12.6 to 100 nM.
As for `CC1=NN(Cc2ccc(C(=O)N[C@H](Cc3ccccc3Cl)[C@@H](O)C(=O)O)cc2)C(=O)C1` [Example 6-19, (2R,3R)-4-(2-Chlorophenyl)-2-hydroxy-3-[4-(3-methyl-5-oxo-4,5-dihydro-pyrazol-1-ylmethyl)-benzoylamino]-butyric acid], the figure is 12.6 to 100 nM.
Consider `CCc1ccc(C(=O)N[C@H](Cc2ccccc2)[C@@H](O)C(=O)O)cc1NC(=O)CC(=O)O` [Example 10-67, (2R,3R)-3-[3-(2-Carboxy-acetylamino)-4-ethyl-benzoylamino]-2-hydroxy-4-phenyl-butyric acid], for which the Ki is 12.6 to 100 nM.
As for `O=C(O)c1cc(C(=O)N[C@H](Cc2ccccc2)[C@@H](O)C(=O)O)cc(-c2ccccc2)c1` [Example 10-29, 5-((1R,2R)-1-Benzyl-2-carboxy-2-hydroxy-ethylcarbamoyl)-biphenyl-3-carboxylic acid], the figure is 12.6 to 100 nM; as for `NS(=O)(=O)c1cccc(-c2cccc(C(=O)N[C@H](Cc3ccccc3)[C@@H](O)C(=O)O)c2)c1` [Example 10-30, (2R,3R)-2-Hydroxy-4-phenyl-3-[(3′-sulfamoyl-biphenyl-3-carbonyl)-amino]-butyric acid], 12.6 to 100 nM.
As for `Cc1ccc(C(=O)N[C@H](Cc2ccccc2)[C@@H](O)C(=O)O)cc1-c1ccc(C(=O)O)cc1` [Example 10-61, 5′-((1R,2R)-1-Benzyl-2-carboxy-2-hydroxy-ethylcarbamoyl)-2′-methyl-biphenyl-4-carboxylic acid], the figure is 12.6 to 100 nM.
As to `O=C(N[C@H](Cc1ccccc1)[C@@H](O)C(=O)O)c1cc(F)cc(-c2ccccc2C(=O)O)c1` [Example 10-25, 3′-((1R,2R)-1-Benzyl-2-carboxy-2-hydroxy-ethylcarbamoyl)-5′-fluoro-biphenyl-2-carboxylic acid], the Ki was 1.26 to 10 nM.
For the compound `O=C(N[C@H](Cc1ccccc1)[C@@H](O)C(=O)O)c1ccc(-n2ccc(C(F)(F)F)n2)cc1` [Example 10-3, (2R,3R)-2-Hydroxy-4-phenyl-3-[4-(3-trifluoromethyl-pyrazol-1-yl)-benzoylamino]-butyric acid], the Ki was 12.6 to 100 nM.
The same measure for `CCc1ccc(C(=O)N[C@H](Cc2ccccc2)[C@@H](O)C(=O)O)cc1NC(=O)NC(CC(C)C)C(=O)O` (stereo partly drawn) [Example 10-74, 2-{3-[5-((1R,2R)-1-Benzyl-2-carboxy-2-hydroxy-ethylcarbamoyl)-2-ethyl-phenyl]-ureido}-4-methyl-pentanoic acid]: 12.6 to 100 nM.
